In brackets after ≈: the same amount, converted by molar mass.
How the values were obtained:
Assay type in all cases: cell-based
[1] = system: Pseudomonas aeruginosa NCTC 10490; assay: Antibacterial activity, agar-dilution MIC, organism No. 16; conditions: Organism No. 16, bouillon-agar
Method in brief: (§1)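 Read-out is the minimum inhibitory concentration, given as μg/ml of the culture medium, obtained by agar dilution using bouillon agar.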

[2] = system: Salmonella paratyphi-A 1015; assay: Antibacterial activity, agar-dilution MIC, organism No. 10
Method in brief: as §1

[3] = system: Bacillus subtilis ATCC 6633; assay: Antibacterial activity, agar-dilution MIC, organism No. 14; conditions: Organism No. 14, bouillon-agar
Method in brief: as §1

[4] = system: Staphylococcus aureus MS 353; assay: Antibacterial activity, agar-dilution MIC, organism No. 3; conditions: Organism No. 3, bouillon-agar
Method in brief: as §1

[5] = system: Salmonella shottmuelleri 8006; assay: Antibacterial activity, agar-dilution MIC, organism No. 11; conditions: Organism No. 11, bouillon-agar
Method in brief: as §1

[6] = system: Pseudomonas aeruginosa PAO 1; assay: Antibacterial activity, agar-dilution MIC, organism No. 17; conditions: Organism No. 17, bouillon-agar
Method in brief: as §1

[7] = system: Salmonella enteritidis G 14; assay: Antibacterial activity, agar-dilution MIC, organism No. 12; conditions: Organism No. 12, bouillon-agar
Method in brief: as §1

[8] = system: Escherichia coli NIHJ-JC-2; assay: Antibacterial activity, agar-dilution MIC, organism No. 5; conditions: Organism No. 5, bouillon-agar
Method in brief: as §1

[9] = system: Micrococcus luteus ATCC 9341; assay: Antibacterial activity, agar-dilution MIC, organism No. 25; conditions: Organism No. 25, bouillon-agar
Method in brief: as §1

[10] = system: Aspergillus niger IFO 6342; assay: Antifungal activity, agar-dilution MIC, organism No. 30; conditions: Organism No. 30, bouillon-agar
Method in brief: as §1

[11] = system: Salmonella typhimurium IID 971; assay: Antibacterial activity, agar-dilution MIC, organism No. 8; conditions: Organism No. 8, bouillon-agar
Method in brief: as §1

[12] = system: Pseudomonas aeruginosa IFO 3445; assay: Antibacterial activity, agar-dilution MIC, organism No. 15; conditions: Organism No. 15, bouillon-agar
Method in brief: as §1

[13] = system: Proteus rettgeri IFO 3850; assay: Antibacterial activity, agar-dilution MIC, organism No. 22; conditions: Organism No. 22, bouillon-agar
Method in brief: as §1

[14] = system: Enterobacter aerogenes ATCC 13048; assay: Antibacterial activity, agar-dilution MIC, organism No. 23; conditions: Organism No. 23, bouillon-agar
Method in brief: as §1

[15] = system: Staphylococcus aureus Terajima; assay: Antibacterial activity, agar-dilution MIC, organism No. 2; conditions: Organism No. 2, bouillon-agar
Method in brief: as §1

[16] = system: Staphylococcus aureus FDA 209PJc-1; assay: Antibacterial activity, agar-dilution MIC, organism No. 1; conditions: Organism No. 1, bouillon-agar
Method in brief: as §1

[17] = system: Proteus mirabilis IFO 3849; assay: Antibacterial activity, agar-dilution MIC, organism No. 19; conditions: Organism No. 19, bouillon-agar
Method in brief: as §1

[18] = system: Streptococcus pyogenes Cook; assay: Antibacterial activity, agar-dilution MIC, organism No. 4; conditions: Organism No. 4, bouillon-agar
Method in brief: as §1

Enterobacter cloacae 963 = assay: Antibacterial activity, agar-dilution MIC, organism No. 24; conditions: Organism No. 24, bouillon-agar
Method in brief: as §1

[19] = system: Escherichia coli K12 C600 IAM 1264; assay: Antibacterial activity, agar-dilution MIC, organism No. 6; conditions: Organism No. 6, bouillon-agar
Method in brief: as §1

Salmonella typhi 901 = assay: Antibacterial activity, agar-dilution MIC, organism No. 9
Method in brief: as §1

[20] = system: Proteus morganii IFO 3848; assay: Antibacterial activity, agar-dilution MIC, organism No. 18; conditions: Organism No. 18, bouillon-agar
Method in brief: as §1

[21] = system: Streptococcus pyogenes IFO 3340; assay: Antibacterial activity, agar-dilution MIC, organism No. 26; conditions: Organism No. 26, bouillon-agar
Method in brief: as §1

Proteus vulgaris HX-19 = assay: Antibacterial activity, agar-dilution MIC, organism No. 21; conditions: Organism No. 21, bouillon-agar
Method in brief: as §1

[22] = system: Candida albicans IAM 4905; assay: Antifungal activity, agar-dilution MIC, organism No. 29; conditions: Organism No. 29, bouillon-agar
Method in brief: as §1

[23] = system: Klebsiella pneumoniae PCI-602; assay: Antibacterial activity, agar-dilution MIC, organism No. 7; conditions: Organism No. 7, bouillon-agar
Method in brief: as §1

[24] = system: Mycoplasma pneumoniae IID817; assay: Antimycoplasmal activity, MIC by phenol red colour change, organism No. 28; conditions: Organism No. 28, PPLO broth + 1% glucose, 37° C.
Method: Mycoplasma pneumoniae IID817 was used as the test microorganism in a culture medium prepared by adding 1% of glucose to "PPLO broth (manufactured by Difco Co.) liquid culture medium" at 37° C. with phenol red as an indicator, thereby culturing the test microorganism.

Proteus vulgaris OX-19 = assay: Antibacterial activity, agar-dilution MIC, organism No. 20; conditions: Organism No. 20, bouillon-agar
Method in brief: as §1

[25] = system: Serratia marcescens IAM 1184; assay: Antibacterial activity, agar-dilution MIC, organism No. 13; conditions: Organism No. 13, bouillon-agar
Method in brief: as §1

[26] = system: Streptococcus faecium IFO 3826; assay: Antibacterial activity, agar-dilution MIC, organism No. 27; conditions: Organism No. 27, bouillon-agar
Method in brief: as §1

## [C-]#[N+]C12CC3(/C=C/C(=O)Nc4ccc(SC)cc4)OC3C1O2 (stereo not drawn) [compound 76]
[1]
  Minimum Inhibitory Concentration: > 200 µg/mL
[2]; Organism No. 10, bouillon-agar
  Minimum Inhibitory Concentration: 0.78 µg/mL
[3]
  Minimum Inhibitory Concentration: 12.5 µg/mL
[4]
  Minimum Inhibitory Concentration: 0.78 µg/mL
[5]
  Minimum Inhibitory Concentration: 1.56 µg/mL
[6]
  Minimum Inhibitory Concentration: > 200 µg/mL
[7]
  Minimum Inhibitory Concentration: > 200 µg/mL
[8]
  Minimum Inhibitory Concentration: > 200 µg/mL
[9]
  Minimum Inhibitory Concentration: 50 µg/mL
[10]
  Minimum Inhibitory Concentration: 100 µg/mL
[11]
  Minimum Inhibitory Concentration: > 200 µg/mL
[12]
  Minimum Inhibitory Concentration: > 200 µg/mL
[13]
  Minimum Inhibitory Concentration: 100 µg/mL
[14]
  Minimum Inhibitory Concentration: > 200 µg/mL
[15]
  Minimum Inhibitory Concentration: 1.56 µg/mL
[16]
  Minimum Inhibitory Concentration: 0.39 µg/mL
[17]
  Minimum Inhibitory Concentration: > 200 µg/mL
[18]
  Minimum Inhibitory Concentration: 100 µg/mL
Enterobacter cloacae 963
  Minimum Inhibitory Concentration: 200 µg/mL
[19]
  Minimum Inhibitory Concentration: > 200 µg/mL
Salmonella typhi 901; Organism No. 9, bouillon-agar
  Minimum Inhibitory Concentration: 25 µg/mL
[20]
  Minimum Inhibitory Concentration: 3.13 µg/mL
[21]
  Minimum Inhibitory Concentration: 1.56 µg/mL
Proteus vulgaris HX-19
  Minimum Inhibitory Concentration: 0.78 µg/mL
[22]
  Minimum Inhibitory Concentration: 25 µg/mL
[23]
  Minimum Inhibitory Concentration: 0.78 µg/mL
[24]
  Minimum Inhibitory Concentration (MIC): < 0.2
Proteus vulgaris OX-19
  Minimum Inhibitory Concentration: 1.56 µg/mL
[25]
  Minimum Inhibitory Concentration: > 200 µg/mL
[26]
  Minimum Inhibitory Concentration: 1.56 µg/mL

## [C-]#[N+]C12CC3(/C=C/C(=O)Nc4ccc5c(c4)CCC5)OC3C1O2 (stereo not drawn) [compound 75]
[1]; Pseudomonas aeruginosa, NCTC10490, read-out: Minimum Inhibitory Concentration
  MIC: > 200 µg/mL
[2]; Salmonella enterica, PARATYPHI, read-out: Minimum Inhibitory Concentration
  MIC: 0.78 µg/mL (≈ 2.53 µM)
[3]; Bacillus subtilis, ATCC6633, read-out: Minimum Inhibitory Concentration
  MIC: 1.56 µg/mL (≈ 5.06 µM)
[4]; Staphylococcus aureus, MS353, read-out: Minimum Inhibitory Concentration
  MIC: 0.78 µg/mL (≈ 2.53 µM)
[5]; Salmonella, 8006, read-out: Minimum Inhibitory Concentration
  MIC: 1.56 µg/mL (≈ 5.06 µM)
[6]; Pseudomonas aeruginosa, PAO1, read-out: Minimum Inhibitory Concentration
  MIC: > 200 µg/mL
[7]; Salmonella enterica, ENTERITIDIS, read-out: Minimum Inhibitory Concentration
  MIC: > 200 µg/mL
[8]; Escherichia coli, NIHJJC2, read-out: Minimum Inhibitory Concentration
  MIC: > 200 µg/mL
[9]; Micrococcus luteus, ATCC9341, read-out: Minimum Inhibitory Concentration
  MIC: 200 µg/mL (≈ 649 µM)
[10]; Aspergillus niger, IFO6342, read-out: Minimum Inhibitory Concentration
  MIC: 200 µg/mL (≈ 649 µM)
[11]; Salmonella enterica, read-out: Minimum Inhibitory Concentration
  MIC: > 200 µg/mL
[12]; Pseudomonas aeruginosa, IFO3445, read-out: Minimum Inhibitory Concentration
  MIC: > 200 µg/mL
[13]; Providencia rettgeri, IFO3850, read-out: Minimum Inhibitory Concentration
  MIC: > 200 µg/mL
[14]; Klebsiella aerogenes, ATCC13048, read-out: Minimum Inhibitory Concentration
  MIC: > 200 µg/mL
[15]; Staphylococcus aureus, read-out: Minimum Inhibitory Concentration
  MIC: 1.56 µg/mL (≈ 5.06 µM)
[16]; Staphylococcus aureus, FDA209PJC1, read-out: Minimum Inhibitory Concentration
  MIC: 0.39 µg/mL (≈ 1.26 µM)
[17]; Proteus mirabilis, IFO3849, read-out: Minimum Inhibitory Concentration
  MIC: > 200 µg/mL
[18]; Streptococcus pyogenes, read-out: Minimum Inhibitory Concentration
  MIC: > 200 µg/mL
Enterobacter cloacae 963; Enterobacter cloacae, 963, read-out: Minimum Inhibitory Concentration
  MIC: 200 µg/mL (≈ 649 µM)
[19]; Escherichia coli, IAM1264, read-out: Minimum Inhibitory Concentration
  MIC: > 200 µg/mL
Salmonella typhi 901; Salmonella enterica, TYPHI, read-out: Minimum Inhibitory Concentration
  MIC: > 200 µg/mL
[20]; Morganella morganii, IFO3848, read-out: Minimum Inhibitory Concentration
  MIC: 3.13 µg/mL (≈ 10.2 µM)
[21]; Streptococcus pyogenes, IFO3340, read-out: Minimum Inhibitory Concentration
  MIC: 0.78 µg/mL (≈ 2.53 µM)
Proteus vulgaris HX-19; Proteus vulgaris, HX19, read-out: Minimum Inhibitory Concentration
  MIC: 0.78 µg/mL (≈ 2.53 µM)
[22]; Candida albicans, IAM4905, read-out: Minimum Inhibitory Concentration
  MIC: 200 µg/mL (≈ 649 µM)
[23]; Klebsiella pneumoniae, PCI602, read-out: Minimum Inhibitory Concentration
  MIC: 0.78 µg/mL (≈ 2.53 µM)
[24]; Mycoplasma, IID817, read-out: Minimum Inhibitory Concentration (MIC)
  MIC: < 0.2 µg/mL
Proteus vulgaris OX-19; Proteus vulgaris, OX19, read-out: Minimum Inhibitory Concentration
  MIC: 1.56 µg/mL (≈ 5.06 µM)
[25]; Serratia marcescens, IAM1184, read-out: Minimum Inhibitory Concentration
  MIC: > 200 µg/mL
[26]; Enterococcus faecium, IFO3826, read-out: Minimum Inhibitory Concentration
  MIC: 1.56 µg/mL (≈ 5.06 µM)

Source: patent publication US4684664A, “Derivatives of β-(4-isocyano-1,2,3,4-diepoxycyclopentyl) acrylic acid” (Kureha Kagaku Kogyo Kabushiki Kaisha, priority 1984, dated 1987)
